Experimental data as given in PMC10979160 (Heliyon, 2024).
Converted amounts (≈) assume the structure as drawn. Counter-ions that a name gives are not always drawn. Like-named read-outs stand apart in the source and are kept apart here. Where a SMILES comes first, the peptide text is derived from it. [ ]: non-standard residue; d: D form.

Tests used:
E. coli ATCC 25922 [1] = assay: Checkerboard dilution assay for synergy between CAMPs and antibiotics; format: cell-based
E. coli ATCC 25922 [2] = assay: MIC test for dividing and non-dividing bacterial cultures; format: cell-based; settings: Escherichia coli, ATCC25922, 1 h
[3] = peptide + ampicillin, 5 × 10^3 CFU/mL
[4] = peptide + ampicillin, 5 × 10^5 CFU/mL
[5] = peptide + gentamicin, 5 × 10^3 CFU/mL
[6] = peptide + gentamicin, 5 × 10^5 CFU/mL
[7] = peptide + levofloxacin, 5 × 10^3 CFU/mL
[8] = peptide + levofloxacin, 5 × 10^5 CFU/mL
[9] = read-out: MIC, dividing cells (LB)
[10] = read-out: MIC, non-dividing cells (PBS)

| Structure (SMILES) | FICI (E. coli ATCC 25922 [1]; [3]) | FICI (E. coli ATCC 25922 [1]; [4]) | FICI (E. coli ATCC 25922 [1]; [5]) | FICI (E. coli ATCC 25922 [1]; [6]) | FICI (E. coli ATCC 25922 [1]; [7]) | FICI (E. coli ATCC 25922 [1]; [8]) | MIC (E. coli ATCC 25922 [2]; [9]) | MIC (E. coli ATCC 25922 [2]; [10]) |
| --- | --- | --- | --- | --- | --- | --- | --- | --- |
| CC(C)C[C@@H](N)C(=O)N[C@@H](C(=O)N[C@H](Cc1c[nH]c2ccccc12)C(=O)N[C@H](CCCCN)C(=O)N[C@H](CC(C)C)C(=O)N[C@H](Cc1c[nH]c2ccccc12)C(=O)N[C@H](Cc1c[nH]c2ccccc12)C(=O)N[C@H](CCCNC(=N)N)C(=O)N[C@H](CC(C)C)C(=O)N[C@H](CCCNC(=N)N)C(=O)N[C@H](Cc1c[nH]c2ccccc12)C(=O)N[C@H](CC(C)C)C(=O)N[C@H](CCCCN)C(N)=O)C(C)C [ST1D] (H-[dL][dV][dW][dK][dL][dW][dW][dR][dL][dR][dW][dL][dK]-NH2) | 0.625 | 0.625 | 0.516 | 0.625 | 1 | 1.031 | – | – |
| CC[C@H](C)[C@H](NC(=O)[C@H](CCCNC(=N)N)NC(=O)[C@H](CCCCN)NC(=O)[C@H](CC(C)C)NC(=O)[C@H](Cc1ccccc1)NC(=O)[C@H](CCCNC(=N)N)NC(=O)[C@H](C)NC(=O)[C@@H](N)C(C)C)C(=O)N[C@H](C(=O)N[C@@H](CCCCN)C(=O)N[C@@H](C)C(=O)N[C@@H](CC(C)C)C(=O)N[C@@H](Cc1ccccc1)C(N)=O)[C@@H](C)CC [LCAPL8] (H-VARFLKRIIKALF-NH2) | 1.016 | 1.031 | 1.031 | 0.531 | 1.25 | 0.625 | – | – |
| CC[C@H](C)[C@H](NC(=O)[C@H](Cc1ccccc1)NC(=O)CN)C(=O)N[C@@H](CCCCN)C(=O)N[C@H](C(=O)N[C@H](C(=O)N[C@@H](CCCNC(=N)N)C(=O)N[C@@H](CCCCN)C(=O)N[C@@H](CC(C)C)C(=O)N[C@@H](CC(C)C)C(=O)N[C@@H](CCCNC(=N)N)C(=O)N[C@@H](CC(C)C)C(=O)N[C@@H](Cc1ccccc1)C(N)=O)C(C)C)[C@@H](C)CC [LCAPL9] (H-GFIKIVRKLLRLF-NH2) | 1.016 | 0.625 | 1 | 1.031 | 2 | 1.25 | – | – |
| CC[C@H](C)[C@H](NC(=O)[C@H](C)N)C(=O)N[C@@H](CCCCN)C(=O)N[C@H](C(=O)N[C@@H](CCCNC(=N)N)C(=O)N[C@@H](CCCCN)C(=O)N[C@@H](CC(C)C)C(=O)N[C@@H](Cc1ccccc1)C(=O)N[C@@H](CCCCN)C(=O)N[C@@H](CCCCN)C(=O)N[C@@H](CC(C)C)C(=O)N[C@@H](CC(C)C)C(=O)N[C@@H](CCCNC(=N)N)C(N)=O)[C@@H](C)CC [L1L] (H-AIKIRKLFKKLLR-NH2) | 0.563 | 0.5 | 0.75 | 0.5 | 0.625 | 0.5 | – | – |
| CC[C@@H](C)[C@@H](NC(=O)[C@@H](Cc1c[nH]c2ccccc12)NC(=O)[C@H](N)CCCNC(=N)N)C(=O)N[C@H](CCCNC(=N)N)C(=O)N[C@H](Cc1c[nH]c2ccccc12)C(=O)N[C@@H](C(=O)N[C@H](Cc1c[nH]c2ccccc12)C(=O)N[C@H](CCCNC(=N)N)C(=O)N[C@H](CCCCN)C(=O)N[C@H](CCCCN)C(=O)N[C@H](CC(C)C)C(=O)N[C@H](CCCNC(=N)N)C(N)=O)C(C)C [24D] (H-[dR][dW][dI][dR][dW][dV][dW][dR][dK][dK][dL][dR]-NH2) | 1.016 | 0.625 | 1.015 | 1 | 1 | 1.031 | – | – |
| CNC(C)C1CCC(N)C(OC2C(N)CC(N)C(OC3OCC(C)(O)C(NC)C3O)C2O)O1 (stereo not shown) [Gentamicin, gentamicin] | – | – | – | – | – | – | 50 µg/mL (≈ 105 µM) | 25 µg/mL (≈ 52.3 µM) |
| CC(C)C[C@H](NC(=O)[C@H](Cc1ccccc1)NC(=O)[C@H](CCCCN)NC(=O)[C@@H](N)CCCCN)C(=O)NCC(=O)N[C@@H](CCCCN)C(=O)N[C@@H](Cc1c[nH]c2ccccc12)C(=O)N[C@@H](CCCCN)C(=O)N[C@@H](CC(C)C)C(=O)N[C@@H](CCCNC(=N)N)C(=O)N[C@@H](Cc1ccccc1)C(=O)NCC(=O)N[C@@H](Cc1c[nH]c2ccccc12)C(N)=O [LCAPL15] (H-KKFLGKWKLRFGW-NH2) | 0.75 | 0.563 | 1.031 | 0.75 | 0.75 | 0.563 | – | – |
| CC[C@H](C)[C@H](NC(=O)[C@H](Cc1c[nH]c2ccccc12)NC(=O)[C@@H](N)CCCNC(=N)N)C(=O)N[C@@H](CCCNC(=N)N)C(=O)N[C@@H](Cc1c[nH]c2ccccc12)C(=O)N[C@H](C(=O)N[C@@H](Cc1c[nH]c2ccccc12)C(=O)N[C@@H](CCCNC(=N)N)C(=O)N[C@@H](CCCCN)C(=O)N[C@@H](CCCCN)C(=O)N[C@@H](CC(C)C)C(=O)N[C@@H](CCCNC(=N)N)C(N)=O)C(C)C [24L] (H-RWIRWVWRKKLR-NH2) | 0.625 | 0.5 | 1 | 0.5 | 0.75 | 0.5 | – | – |
| CC[C@H](C)[C@H](N)C(=O)N[C@H](C(=O)N[C@@H](CCCCN)C(=O)N[C@@H](CCCNC(=N)N)C(=O)N[C@H](C(=O)N[C@@H](CC(C)C)C(=O)N[C@H](C(=O)N[C@@H](CCC(N)=O)C(=O)N[C@@H](CC(C)C)C(=O)N[C@@H](CCCCN)C(=O)N[C@@H](CCCCN)C(=O)N[C@@H](CC(C)C)C(=O)N[C@@H](CC(C)C)C(N)=O)[C@@H](C)CC)[C@@H](C)CC)[C@@H](C)CC [LCAPL10] (H-IIKRILIQLKKLL-NH2) | 1.016 | 0.75 | 1.125 | 0.5 | 1.031 | 0.531 | – | – |
| CC[C@H](C)[C@H](NC(=O)CN)C(=O)N[C@@H](CCCCN)C(=O)N[C@H](C(=O)N[C@@H](CCCNC(=N)N)C(=O)N[C@@H](CCCCN)C(=O)N[C@@H](CC(C)C)C(=O)N[C@@H](Cc1ccccc1)C(=O)N[C@@H](CCCCN)C(=O)N[C@@H](CCCCN)C(=O)N[C@@H](CC(C)C)C(=O)N[C@@H](CC(C)C)C(=O)N[C@@H](CCCNC(=N)N)C(N)=O)[C@@H](C)CC [LCAPL2] (H-GIKIRKLFKKLLR-NH2) | 0.5 | 0.75 | 0.625 | 0.375 | 0.531 | 0.625 | – | – |
| CC1(C)S[C@@H]2[C@H](NC(=O)[C@H](N)c3ccccc3)C(=O)N2[C@H]1C(=O)O [Ampicillin, ampicillin sodium salt] | – | – | – | – | – | – | > 100 µg/mL | > 100 µg/mL |
| CC(C)C[C@H](NC(=O)[C@H](Cc1c[nH]c2ccccc12)NC(=O)[C@H](CCCNC(=N)N)NC(=O)[C@H](CC(C)C)NC(=O)[C@H](CCCNC(=N)N)NC(=O)[C@H](Cc1c[nH]c2ccccc12)NC(=O)[C@H](Cc1c[nH]c2ccccc12)NC(=O)[C@H](CC(C)C)NC(=O)[C@H](CCCCN)NC(=O)[C@H](Cc1c[nH]c2ccccc12)NC(=O)[C@@H](NC(=O)[C@@H](N)CC(C)C)C(C)C)C(=O)N[C@@H](CCCCN)C(N)=O [ST1L] (H-LVWKLWWRLRWLK-NH2) | 0.375 | 0.625 | 1 | 0.516 | 0.625 | 0.75 | – | – |
